Columns and labels:
Type in all cases: in vivo
green foxtail (Se) = experiment: Test Example 2: herbicidal effects by upland soil treatment; details: dose 100 g active ingredient per 10 ares, examined on the 21st day after treatment, standards of Table 44;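 note: 0-5 growth inhibition grade; 5 = over 90%; 4 = 70-90%; 3 = 50-70%; 2 = 30-50%; 1 = 10-30%; 0 = under 10%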
Method: In a 80 cm^2 plastic pot, upland soil was filled, and seeds of barnyard grass (Ec) and green foxtail (Se) were sown and covered with soil. A wettable powder prepared in accordance with Formulation Example 1 was diluted with water and uniformly applied to the soil surface by means of a small size spray at a rate of 100 l per 10 ares, so that the dose of the active ingredient would be 100 g per 10 ares. Thereafter, cultivation was carried out in a green house, and on the 21st day after the treatment, the herbicidal effects were examined in accordance with the standards as identified in Table 44.

monochoria (Mo) [1] = experiment: Test Example 1: herbicidal effects by flooded paddy field treatment; parameters: herbicidal effects, Mo (monochoria):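 0-5 growth inhibition grade; 5 = over 90%; 4 = 70-90%; 3 = 50-70%; 2 = 30-50%; 1 = 10-30%; 0 = under 10%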; details: for herbicidal effects, Mo (monochoria): dose 100 g active ingredient per 10 ares, examined on the 21st day after treatment, standards of Table 44; for Herbicidal effect index, Mo: dose 100 gai/10a, examined on 21st day after treatment, index 0-5 per Table 44;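 for Herbicidal effect index, Mo: 0-5 growth inhibition grade; 5 = over 90%; 4 = 70-90%; 3 = 50-70%; 2 = 30-50%; 1 = 10-30%; 0 = under 10%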
Summary of the method: (§1)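 Pots hold puddled paddy soil; seeds are sown and the pots flooded 3 cm deep. Next day, diluted wettable powder goes dropwise onto the water at a dose of 100 g active ingredient per 10 ares, and herbicidal effects are rated after 21 days in a greenhouse.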

barnyard grass (Eo) [2] = experiment: as above; parameters: herbicidal effects, Eo (barnyard grass):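 0-5 growth inhibition grade; 5 = over 90%; 4 = 70-90%; 3 = 50-70%; 2 = 30-50%; 1 = 10-30%; 0 = under 10%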; details: for herbicidal effects, Eo (barnyard grass): dose 100 g active ingredient per 10 ares, examined on the 21st day after treatment, standards of Table 44; for Herbicidal effect index, Eo: dose 100 gai/10a, examined on 21st day after treatment, index 0-5 per Table 44
Summary of the method: as §1

barnyard grass (Ec) [3] = experiment: Test Example 2: herbicidal effects by upland soil treatment; parameters: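 0-5 growth inhibition grade; 5 = over 90%; 4 = 70-90%; 3 = 50-70%; 2 = 30-50%; 1 = 10-30%; 0 = under 10%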; details: dose 100 g active ingredient per 10 ares, examined on the 21st day after treatment; for herbicidal effects, Ec (barnyard grass): standards of Table 44
Summary of the method: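 Pre-emergence test: barnyard grass and green foxtail sown in upland soil, then soil surface sprayed with wettable-powder formulation at 100 g active ingredient per 10 ares (100 l per 10 ares). Grown in greenhouse; herbicidal effect scored on a rating scale 21 days after treatment.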

barnyard grass (Ec) [4] = experiment: Test Example 3: herbicidal effects by foliage treatment in upland field; parameters: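 0-5 growth inhibition grade; 5 = over 90%; 4 = 70-90%; 3 = 50-70%; 2 = 30-50%; 1 = 10-30%; 0 = under 10%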; details: dose 100 g active ingredient per 10 ares, examined on the 14th day after treatment
Summary of the method: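 Barnyard grass and green foxtail were grown in upland soil for 2 weeks in a greenhouse. A water-diluted wettable powder was sprayed over the foliage at 100 l per 10 ares, giving 100 g active ingredient per 10 ares. Herbicidal effect was scored on day 14 after treatment.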

monochoria (Mo) [5] = experiment: Test Example 4: selectivity for a crop plant by flooded paddy field treatment; parameters: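 0-5 growth inhibition grade; 5 = over 90%; 4 = 70-90%; 3 = 50-70%; 2 = 30-50%; 1 = 10-30%; 0 = under 10%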; details: monochoria, dose 25 gai/10a, 21st day after treatment, index per Table 44
Summary of the method: (§2)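 Rice at the second-leaf stage is transplanted into puddled, 3 cm-flooded paddy soil alongside sown weed seeds, and a diluted wettable powder is dripped onto the water surface the following day at 25 g a.i./10 ares. Effects are rated 21 days later.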

rice (Or) = experiment: as above; parameters: scale not given here; details: rice transplanted at second leaf stage, dose 25 gai/10a, 21st day after treatment, index per Table 44
Summary of the method: as §2

barnyard grass (Eo) [6] = experiment: as above; parameters: scale not given here; details: barnyard grass, dose 25 gai/10a, 21st day after treatment, index per Table 44
Summary of the method: as §2
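Throughout, for Herbicidal effect index, Eo: 0-5 growth inhibition grade; 5 = over 90%; 4 = 70-90%; 3 = 50-70%; 2 = 30-50%; 1 = 10-30%; 0 = under 10%.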

SMILES | herbicidal effects, Se (green foxtail) (green foxtail (Se)) | herbicidal effects, Mo (monochoria) (monochoria (Mo) [1]) | herbicidal effects, Eo (barnyard grass) (barnyard grass (Eo) [2]) | herbicidal effects, Ec (barnyard grass) (barnyard grass (Ec) [3]) | Herbicidal effect index, Mo (monochoria (Mo) [1]) | Herbicidal effect index, Eo (barnyard grass (Eo) [2]) | Ec (herbicidal effects, index) (barnyard grass (Ec) [4]) | Ec (herbicidal effects, index) (barnyard grass (Ec) [3]) | Mo (herbicidal effect index) (monochoria (Mo) [5]) | Or (herbicidal effect index on crop) (rice (Or)) | Eo (herbicidal effect index) (barnyard grass (Eo) [6])
CN(C(=O)Cc1ccc(F)cc1)C(c1cncnc1C(F)(F)F)C1CCCC1 (racemic) [Compound 1-138] | 5 | 5 | 5 | 5 |  |  |  |  |  |  | 
CSc1ncncc1C(C(C)C)N(C)C(=O)Cc1ccc(Cl)cc1 (racemic) [Compound 1-151] | 5 | 5 | 5 | 5 |  |  |  |  |  |  | 
COc1ccc(SC(=O)N(C)C(c2cncnc2C(F)(F)F)C(C)C)cc1 (racemic) [Compound 1-11] | 5 |  |  | 5 |  |  |  |  |  |  | 
CC(C)C(c1cncnc1C1CC1)N(C)C(=O)Cc1ccc(F)cc1 (racemic) [Compound 1-101] | 5 |  |  | 5 | 5 | 5 |  |  |  |  | 
Cc1ccc(CC(=O)N(C)C(c2cncnc2C2CC2)C(C)C)cc1 (racemic) [Compound 1-102] | 5 |  |  | 5 | 5 | 5 |  |  |  |  | 
CC(C)C(c1cncnc1)N(C)C(=O)Cc1ccc(Cl)cc1 (racemic) [Compound 1-90] | 5 |  |  | 5 | 5 | 5 |  |  |  |  | 
COC(C(=O)N(C)C(c1cncnc1C(F)(F)F)C(C)C)c1ccc(Cl)cc1 (mixture of isomers) [Compound 1-155] | 4 | 5 | 5 | 4 |  |  |  |  |  |  | 
CCCC(c1cncnc1C(F)(F)F)N(C)C(=O)Cc1ccc(Cl)cc1 (racemic) [Compound 1-114] | 5 |  |  | 5 | 5 | 5 |  |  |  |  | 
Cc1ncncc1C(N(C)C(=O)Cc1ccc(F)cc1)C(C)(C)C (racemic) [Compound 1-160] | 5 | 5 | 5 | 5 |  |  |  |  |  |  | 
CN(C(=O)Cc1ccc(F)cc1)C(c1ccc(Cl)cc1)c1cncnc1C(F)(F)F (racemic) [1-222] | 5 | 5 | 5 | 5 |  |  |  |  |  |  | 
CC(C)C(c1cncnc1C(F)(F)F)N(C)C(=O)Oc1ccc(F)cc1 (racemic) [1-177] | 4 | 5 | 5 | 4 |  |  |  |  |  |  | 
Cc1ncncc1C(N(C)C(=O)Cc1ccccc1)C(C)(C)C (racemic) [Compound 1-159] | 5 | 5 | 5 | 5 |  |  |  |  |  |  | 
CC(Oc1ccccc1)C(=O)N(C)C(c1cncnc1C(F)(F)F)C(C)C (mixture of isomers) [Compound 1-115] | 5 |  |  | 5 | 5 | 5 |  |  |  |  | 
CC(C)C(c1cncnc1C(F)F)N(C)C(=O)Cc1ccccc1 (racemic) [Compound 1-163] | 5 | 5 | 5 | 5 |  |  |  |  |  |  | 
CCC(c1cncnc1C(F)(F)F)N(C)C(=O)Cc1ccccc1 (racemic) [Compound 1-32] | 5 |  |  | 5 | 5 | 5 |  |  |  |  | 
CN(C(=O)Cc1ccc(Cl)cc1)C(c1ccccc1)c1cncnc1C(F)(F)F (racemic) [1-187] | 5 | 5 | 5 | 5 |  |  |  |  |  |  | 
COc1ccccc1C(c1cncnc1C(F)(F)F)N(C)C(=O)Cc1ccc(F)cc1 (racemic) [1-489] |  | 5 | 5 |  |  |  | 4 | 5 | 5 | 1 | 5
C#CCN(C(=O)Cc1ccc(F)cc1)C(c1cncnc1CC)C(C)C (racemic) [1-559] |  | 5 | 5 |  |  |  | 4 | 5 | 5 | 1 | 5
COc1ncncc1C(C(C)C)N(C)C(=O)Cc1ccc(C)cc1 (racemic) [1-404] |  | 5 | 5 |  |  |  | 5 | 5 | 5 | 1 | 5
C#CCN(C(=O)Cc1ccc(C)cc1)C(CCC)c1cncnc1CC (racemic) [1-609] |  | 5 | 5 |  |  |  | 4 | 5 | 5 | 1 | 5
CCC(C)C(c1cncnc1C(F)(F)F)N(C)C(=O)Cc1ccc(Cl)s1 (mixture of isomers) [2-57] |  | 5 | 5 |  |  |  | 5 | 5 | 5 | 1 | 5

— US6806230B1, “Pyrimidine derivatives and herbicides containing them” (Kumiai Chemical Industry Co., Ltd., priority 1999, dated 2004)
